Consider one compound from patent US20260053827A1, “Cannabidiol Solid Dosage Forms” (priority 2024, published 2026).

For this data set the following is noted: saturation solubility of CBD in the liquid lipid given as label; supernatant assayed.

Method: Each liquid lipophilic material was heated at 40° C. for 30 minutes in an oven before being combined with the CBD. 10 g of CBD was combined with 5 g of lipophilic material to create a saturated mixture. […] After agitation the solutions were centrifuged at 14800 rpm for 90 minutes to separate out any remaining undissolved CBD crystals. The resulting supernatant was sampled and assayed for CBD content to confirm the saturation solubility of the lipid.

Regarding `CCOCCOCCO` [Transcutol], the “CBD” value turned out to be 653.2 mg/g.
